Assay results as given in patent US8067424B2, “Selective inhibitors for cyclin-dependent kinases” (Emory University, priority 2007, dated 2011).
Read-outs that look alike come from different tables or passages of the source.

Columns and labels:
Assay type in all cases: biochemical
PLK1 (Okadaic Acid) = PLK1 (Okadaic Acid) (Homo sapiens, UniProt P53350); assay: Kinase screen: PLK1 (Okadaic Acid) assay
Protocol: (§1) Generally, the same procedure was used for all assays. Since the total assay volume was 25.5 microliters, 0.5 microliters of inhibitors at 51× assay concentration were added to the plates before any other addition.
(§2) The basic procedure was to add 0.5 microliters inhibitor/control in DMSO to plate. Fifteen microliters of enzyme/substrate/buffer mix were added and incubated for 5 min. Ten microliters MgATP at the relevant concentration were added and incubated for 30 min. The assay was stopped by adding 5 microliters of 3% orthophosphoric acid. The assay was transferred to a p81 filter plate and read in a scintillation counter of 30 sec/well. Note that this assay procedure was not followed for MKK1, which instead involved a two-step assay, and PKC alpha, which required the addition of lipid vesicles.
(50-1000 cpm/pmole) and incubated for 30 min at room temperature. Assays were stopped by addition of 5 μl of 0.5 M (3%) orthophosphoric acid and then harvested onto P81 Unifilter plates with a wash buffer of 50 mM orthophosphoric acid.

BRSK2 = biological target: T1, BRSK2 (Homo sapiens, UniProt Q8IWQ3); assay: Kinase screen: BRSK2 assay
T1 sequence (Q8IWQ3 1-736): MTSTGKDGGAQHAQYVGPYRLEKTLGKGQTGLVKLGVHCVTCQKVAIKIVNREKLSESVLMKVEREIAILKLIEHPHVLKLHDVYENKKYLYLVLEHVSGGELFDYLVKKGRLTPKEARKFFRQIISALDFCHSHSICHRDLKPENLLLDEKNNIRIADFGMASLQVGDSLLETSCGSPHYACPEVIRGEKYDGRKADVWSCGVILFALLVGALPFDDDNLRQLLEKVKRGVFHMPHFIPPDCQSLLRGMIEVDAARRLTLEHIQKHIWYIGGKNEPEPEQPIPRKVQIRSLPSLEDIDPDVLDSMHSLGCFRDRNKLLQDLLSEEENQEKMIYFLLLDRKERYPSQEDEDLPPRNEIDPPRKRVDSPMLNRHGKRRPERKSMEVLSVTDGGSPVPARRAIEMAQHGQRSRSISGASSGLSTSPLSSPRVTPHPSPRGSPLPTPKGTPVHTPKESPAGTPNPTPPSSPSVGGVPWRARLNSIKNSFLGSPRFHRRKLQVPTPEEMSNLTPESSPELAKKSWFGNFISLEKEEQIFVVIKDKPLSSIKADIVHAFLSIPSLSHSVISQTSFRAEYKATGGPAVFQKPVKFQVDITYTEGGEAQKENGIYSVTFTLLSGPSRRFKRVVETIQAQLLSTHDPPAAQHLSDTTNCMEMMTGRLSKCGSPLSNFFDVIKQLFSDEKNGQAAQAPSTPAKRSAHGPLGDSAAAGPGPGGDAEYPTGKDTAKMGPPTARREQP
Protocol: as §1, §2
(§3) BRSK2 assay: BRSK2 (5-20 mU diluted in 50 mM Tris pH 7.5, 0.1 mM EGTA, 0.1% b-mercaptoethanol, 1 mg/ml BSA) was assayed against a substrate peptide ([…]) (SEQ ID NO: 33) in a final volume of 25.5 μl containing 50 mM Tris pH 7.5, 0.05% b-mercaptoethanol, 300 μM substrate peptide, 10 mM magnesium acetate and 0.05 mM [33P-g-ATP] (50-1000 cpm/pmole) and incubated for 30 min at room temperature. Assays were stopped by addition of 5 μl of 0.5 M (3%) orthophosphoric acid and then harvested onto P81 Unifilter plates with a wash buffer of 50 mM orthophosphoric acid.

DYRK3 = biological target: T2, DYRK3 (Homo sapiens, UniProt O43781); assay: Kinase screen: DYRK3 assay
T2 sequence (O43781 1-588): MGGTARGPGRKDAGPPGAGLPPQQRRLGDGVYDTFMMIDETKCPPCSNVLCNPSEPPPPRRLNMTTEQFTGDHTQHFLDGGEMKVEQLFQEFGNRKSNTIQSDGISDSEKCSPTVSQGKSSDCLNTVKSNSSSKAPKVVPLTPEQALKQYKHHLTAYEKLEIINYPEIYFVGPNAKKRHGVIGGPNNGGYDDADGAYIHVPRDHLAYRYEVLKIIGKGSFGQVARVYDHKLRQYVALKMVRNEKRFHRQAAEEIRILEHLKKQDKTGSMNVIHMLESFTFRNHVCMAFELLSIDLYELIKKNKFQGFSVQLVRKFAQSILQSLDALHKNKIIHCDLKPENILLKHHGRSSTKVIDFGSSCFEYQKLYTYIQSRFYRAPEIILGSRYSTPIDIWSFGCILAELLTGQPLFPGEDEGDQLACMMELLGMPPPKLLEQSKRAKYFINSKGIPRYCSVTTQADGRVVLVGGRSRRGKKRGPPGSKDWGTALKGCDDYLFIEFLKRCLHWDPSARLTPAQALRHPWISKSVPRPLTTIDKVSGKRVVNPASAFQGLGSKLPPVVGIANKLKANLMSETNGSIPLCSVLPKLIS
Protocol: as §1, §2
DYRK3 assay: DYRK3 (5-20 mU of diluted in 50 mM Tris pH7.5, 0.1 mM EGTA) was assayed against Woodtide ([…]) (SEQ ID NO: 29) in a final volume of 25.5 μl containing 50 mM Tris pH 7.5, 0.1 mM EGTA, 350 μM substrate peptide, 10 mM Magnesium acetate and 0.005 mM [33P-g-ATP] (50-1000 cpm/pmole) and incubated for 30 min at room temperature. Assays were stopped by addition of 5 μl of 0.5 M (3%) orthophosphoric acid and then harvested onto P81 Unifilter plates with a wash buffer of 50 mM orthophosphoric acid.

IR-HIS = biological target: T3, IR-HIS (Homo sapiens, UniProt P06213); assay: Kinase screen: IR-HIS assay; conditions: 10 micromolar compound; for remaining activity at 10 µM: read-out: mean activity remaining (as a percentage of the original activity), IR-HIS
T3 construct: His
Protocol: as §1, §2
as §3, with “IR-HIS” for “BRSK2”, “EGTA,” for “EGTA, 0.1% b-mercaptoethanol,”, “36)” for “33)”, “7.5,” for “7.5, 0.05% b-mercaptoethanol,”, “0.02” for “0.05”

[1] = 10 micromolar compound, read-out: mean activity remaining (as a percentage of the original activity), PLK 1 (Okadaic Acid)
[2] = 10 micromolar compound, read-out: mean activity remaining (as a percentage of the original activity), BRSK 2
[3] = 10 micromolar compound, read-out: mean activity remaining (as a percentage of the original activity), DYRK 3

T3 sequence (P06213 28-1382): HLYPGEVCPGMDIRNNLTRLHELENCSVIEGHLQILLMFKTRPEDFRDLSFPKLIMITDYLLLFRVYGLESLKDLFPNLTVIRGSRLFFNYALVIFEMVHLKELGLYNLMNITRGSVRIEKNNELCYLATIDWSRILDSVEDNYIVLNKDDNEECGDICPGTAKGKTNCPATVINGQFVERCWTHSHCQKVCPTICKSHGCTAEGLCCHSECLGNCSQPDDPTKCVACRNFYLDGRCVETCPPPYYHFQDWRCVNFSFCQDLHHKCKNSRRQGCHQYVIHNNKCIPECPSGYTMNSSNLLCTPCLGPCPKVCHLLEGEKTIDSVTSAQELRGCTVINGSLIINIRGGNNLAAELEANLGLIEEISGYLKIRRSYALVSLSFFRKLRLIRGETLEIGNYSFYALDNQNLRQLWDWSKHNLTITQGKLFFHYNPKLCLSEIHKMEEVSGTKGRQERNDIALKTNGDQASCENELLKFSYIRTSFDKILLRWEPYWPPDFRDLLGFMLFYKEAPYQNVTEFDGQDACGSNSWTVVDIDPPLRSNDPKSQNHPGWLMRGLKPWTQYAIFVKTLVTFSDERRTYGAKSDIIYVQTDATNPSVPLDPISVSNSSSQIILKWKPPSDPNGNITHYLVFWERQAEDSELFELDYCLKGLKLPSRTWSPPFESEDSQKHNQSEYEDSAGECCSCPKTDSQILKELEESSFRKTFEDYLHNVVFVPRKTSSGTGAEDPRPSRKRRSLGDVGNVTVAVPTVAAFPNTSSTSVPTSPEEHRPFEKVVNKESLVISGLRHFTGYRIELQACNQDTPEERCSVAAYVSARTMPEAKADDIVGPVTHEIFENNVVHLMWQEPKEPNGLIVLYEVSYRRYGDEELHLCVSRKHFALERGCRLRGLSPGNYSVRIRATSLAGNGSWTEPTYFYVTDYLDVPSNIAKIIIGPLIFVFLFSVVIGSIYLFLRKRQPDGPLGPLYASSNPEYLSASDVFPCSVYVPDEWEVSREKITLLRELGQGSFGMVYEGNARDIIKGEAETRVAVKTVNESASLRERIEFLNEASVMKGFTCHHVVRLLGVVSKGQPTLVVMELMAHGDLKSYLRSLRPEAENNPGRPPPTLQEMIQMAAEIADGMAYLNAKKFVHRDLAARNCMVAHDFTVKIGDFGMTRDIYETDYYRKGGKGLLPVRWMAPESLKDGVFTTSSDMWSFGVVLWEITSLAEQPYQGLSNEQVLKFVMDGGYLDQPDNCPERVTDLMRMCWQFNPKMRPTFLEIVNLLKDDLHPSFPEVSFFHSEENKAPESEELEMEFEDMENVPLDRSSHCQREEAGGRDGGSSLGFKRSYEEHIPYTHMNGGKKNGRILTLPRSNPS
Chain of PLK1 (Okadaic Acid) (P53350 whole entry, species assumed): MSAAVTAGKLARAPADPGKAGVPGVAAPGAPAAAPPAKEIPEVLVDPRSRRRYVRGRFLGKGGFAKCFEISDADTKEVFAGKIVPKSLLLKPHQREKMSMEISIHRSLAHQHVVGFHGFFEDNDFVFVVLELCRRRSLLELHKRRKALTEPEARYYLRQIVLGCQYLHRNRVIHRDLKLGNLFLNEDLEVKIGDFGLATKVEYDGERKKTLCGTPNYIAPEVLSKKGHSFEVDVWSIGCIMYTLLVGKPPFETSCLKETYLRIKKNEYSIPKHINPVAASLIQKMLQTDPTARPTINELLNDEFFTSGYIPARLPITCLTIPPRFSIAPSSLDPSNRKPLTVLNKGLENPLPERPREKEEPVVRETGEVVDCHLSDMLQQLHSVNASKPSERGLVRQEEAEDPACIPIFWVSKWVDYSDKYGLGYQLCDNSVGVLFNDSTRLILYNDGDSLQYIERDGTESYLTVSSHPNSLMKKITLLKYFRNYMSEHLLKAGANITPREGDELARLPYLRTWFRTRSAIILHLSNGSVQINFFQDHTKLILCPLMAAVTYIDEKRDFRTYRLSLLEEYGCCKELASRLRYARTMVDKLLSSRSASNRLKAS

SMILES | remaining activity at 10 µM (PLK1 (Okadaic Acid); [1]) [%] | remaining activity at 10 µM (BRSK2; [2]) [%] | remaining activity at 10 µM (DYRK3; [3]) [%] | remaining activity at 10 µM (IR-HIS) [%] | also measured
CC(C)c1cnn2c(NCc3ccccc3)cc(NCCCCCCCN)nc12 [BS-181] |  |  |  |  | remaining activity at 10 µM (PLK1 (Okadaic Acid); PLK1 (Okadaic Acid), 10 μM, read-out: Mean Remaining Enzyme Activity (%)): 108%; remaining activity at 10 µM (BRSK2; BRSK2, 10 μM, read-out: Mean Remaining Enzyme Activity (%)): 98%; remaining activity at 10 µM (DYRK3; DYRK3, 10 μM, read-out: Mean Remaining Enzyme Activity (%)): 87%
C=C[C@H](CO)Nc1cc(NCc2ccccc2)n2ncc(C(C)C)c2n1 [ICEC0065] | 104 | 76 | 86 | 71 | 
CC[C@H](CO)Nc1cc(NCc2ccccc2)n2ncc(C(C)C)c2n1 [ICEC0067] | 93 | 76 | 90 | 78 | 
CC(C)c1cnn2c(NCc3ccccc3)cc(N[C@@H](CO)[C@H](O)CO)nc12 [ICEC0318, (3S)-3-(7-(Benzylamino)-3-isopropylpyrazolo[1,5-a]pyrimidin-5-ylamino)butane-1,2,4-triol] | 97 | 108 | 88 | 70 | 
CC(C)c1cnn2c(NCc3ccccc3F)cc(NCCCCCN)nc12 [ICEC-0232] |  |  |  |  | mean activity remaining (as a percentage of the original activity), PLK 1 (Okadaic Acid) (PLK1 (Okadaic Acid); 10 micromolar compound): 125%; mean activity remaining (as a percentage of the original activity), BRSK 2 (BRSK2; 10 micromolar compound): 81%; mean activity remaining (as a percentage of the original activity), DYRK 3 (DYRK3; 10 micromolar compound): 60%; mean activity remaining (as a percentage of the original activity), IR-HIS (IR-HIS): 58%
